Laboratory results published in the supplement of paper PMC10307832.

Tests used:
Test in all cases: relative viability (nuclei count vs DMSO), 5 days (fraction); higher = more cells survive
Carboplatin + Trametinib = compound: C1CC(C1)(C(=O)O)C(=O)O.[NH2-].[NH2-].[Pt+2] [Carboplatin] + CC(=O)Nc1cccc(-n2c(=O)n(C3CC3)c(=O)c3c(Nc4ccc(I)cc4F)n(C)c(=O)c(C)c32)c1 [Trametinib] (partner 0.02 µM)
Summary of the method: (§1)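 Nuclei were stained with Hoechst during a one-step fixation (final 0.05% Triton X-100, 1% formaldehyde, 1 ug/ml Hoechst) carried out 5 days after dosing, then counted on 4× images. The cells, lung cancer lines in 1536-well plates, had been dosed by pin tool the day after seeding with one drug alone or a fixed anchor-drug dose plus five library-drug doses (not always all listed) in √10 steps. Relative viability is the nuclei count in treated wells divided by that in vehicle wells, and each value is the median of duplicate plates.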

GSK126 + Trametinib = compound: CC[C@H](C)N1C=C(C2=C(C=C(C=C21)C3=CN=C(C=C3)N4CCNCC4)C(=O)NCC5=C(C=C(NC5=O)C)C)C [GSK126] + CC(=O)Nc1cccc(-n2c(=O)n(C3CC3)c(=O)c3c(Nc4ccc(I)cc4F)n(C)c(=O)c(C)c32)c1 [Trametinib] (partner 0.02 µM)
Summary of the method: as §1

MLN4924 + AZD7762 = compound: NS(=O)(=O)OC[C@@H]1C[C@@H](n2ccc3c(N[C@H]4CCc5ccccc54)ncnc32)C[C@@H]1O [MLN4924] + NC(=O)Nc1cc(-c2cccc(F)c2)sc1C(=O)N[C@H]1CCCNC1 [AZD7762] (partner 0.2 µM)
Summary of the method: as §1

MLN4924 + Olaparib = compound: NS(=O)(=O)OC[C@@H]1C[C@@H](n2ccc3c(N[C@H]4CCc5ccccc54)ncnc32)C[C@@H]1O [MLN4924] + O=C(c1cc(Cc2n[nH]c(=O)c3ccccc23)ccc1F)N1CCN(C(=O)C2CC2)CC1 [Olaparib] (partner 8 µM)
Summary of the method: as §1

Row | Cell Line | relative viability (Carboplatin + Trametinib; first compound 0.08 µM) | relative viability (Carboplatin + Trametinib; first compound 0.253 µM) | relative viability (Carboplatin + Trametinib; first compound 0.8 µM) | relative viability (Carboplatin + Trametinib; first compound 2.53 µM) | relative viability (Carboplatin + Trametinib; first compound 8 µM) | relative viability (GSK126 + Trametinib; first compound 0.08 µM) | relative viability (GSK126 + Trametinib; first compound 0.253 µM) | relative viability (GSK126 + Trametinib; first compound 0.8 µM) | relative viability (GSK126 + Trametinib; first compound 2.53 µM) | relative viability (GSK126 + Trametinib; first compound 8 µM) | relative viability (MLN4924 + AZD7762; first compound 0.04 µM) | relative viability (MLN4924 + AZD7762; first compound 0.1265 µM) | relative viability (MLN4924 + AZD7762; first compound 0.4 µM) | relative viability (MLN4924 + AZD7762; first compound 1.265 µM) | relative viability (MLN4924 + AZD7762; first compound 4 µM) | relative viability (MLN4924 + Olaparib; first compound 0.04 µM) | relative viability (MLN4924 + Olaparib; first compound 0.1265 µM) | relative viability (MLN4924 + Olaparib; first compound 0.4 µM) | relative viability (MLN4924 + Olaparib; first compound 1.265 µM) | relative viability (MLN4924 + Olaparib; first compound 4 µM)
1 | 201T | 0.833 | 0.693 | 0.699 | 0.714 | 0.694 | 0.698 | 0.693 | 0.726 | 0.746 | 0.726 | 0.822 | 0.624 | 0.391 | 0.235 | 0.242 | 0.832 | 0.589 | 0.548 | 0.225 | 0.267
2 | A549 | – | – | – | – | – | – | – | – | – | – | – | – | – | – | – | 0.349 | 0.28 | 0.0869 | 0.045 | 0.0539
3 | A-427 | 0.85 | 0.812 | 0.747 | 0.81 | 0.739 | 0.845 | 0.762 | 0.712 | 0.757 | 0.795 | 0.502 | 0.324 | 0.366 | 0.172 | 0.217 | 0.467 | 0.335 | 0.296 | 0.24 | 0.241
4 | ABC-1 | – | – | – | – | – | – | – | – | – | – | 0.985 | 1.17 | 0.52 | 0.23 | 0.258 | 0.997 | 0.878 | 0.779 | 0.275 | 0.294
5 | BEN | 1.2 | 0.928 | 0.97 | 0.893 | 0.865 | 1.05 | 0.736 | 1.02 | 1.26 | 0.953 | 0.66 | 0.76 | 0.561 | 0.321 | 0.264 | 0.662 | 0.328 | 0.264 | 0.189 | 0.207
6 | CAL-12T | 0.385 | 0.352 | 0.299 | 0.33 | 0.365 | 0.407 | 0.366 | 0.311 | 0.382 | 0.348 | 0.522 | 0.514 | 0.365 | 0.274 | 0.247 | 0.667 | 0.538 | 0.249 | 0.17 | 0.13
7 | COR-L23 | 0.619 | 0.645 | 0.559 | 0.509 | 0.229 | 0.837 | 0.563 | 0.499 | 0.557 | 0.737 | – | – | – | – | – | 0.32 | 0.331 | 0.199 | 0.124 | 0.114
8 | COR-L 105 | 0.472 | 0.445 | 0.441 | 0.456 | 0.442 | 0.453 | 0.424 | 0.467 | 0.439 | 0.466 | – | – | – | – | – | 0.5 | 0.568 | 0.427 | 0.278 | 0.335
9 | Calu-6 | – | – | – | – | – | – | – | – | – | – | – | – | – | – | – | 0.369 | 0.268 | 0.167 | 0.0976 | 0.0925
10 | ChaGo-K-1 | 0.857 | 0.917 | 0.831 | 0.717 | 0.546 | 0.902 | 0.986 | 0.888 | 0.947 | 0.983 | 0.861 | 0.701 | 0.508 | 0.193 | 0.159 | 0.279 | 0.205 | 0.227 | 0.153 | 0.147
11 | EBC-1 | – | – | – | – | – | – | – | – | – | – | – | – | – | – | – | 0.558 | 0.259 | 0.134 | 0.0918 | 0.115
